Laboratory results: ChEMBL document CHEMBL5523679, “Discovery of 1,2,3-triazole incorporated indole-piperazines as potent antitubercular agents: Design, synthesis, in vitro biological evaluation, molecular docking and ADME studies” (Bioorg Med Chem, 2024)

These compounds were tested on Pseudomonas aeruginosa (assay: Antibacterial activity against Pseudomonas aeruginosa assessed as inhibition zone at 50 ug/ml by diffusion method). Conditions: read-out: IZ.
Assay type: functional

| SMILES | zone of inhibition at 50 µg/mL |
| --- | --- |
| O=C(CCc1c[nH]c2ccccc12)N1CCN(C(=O)c2ccc(Cl)cc2)CC1 | 10 mm |
| O=C(CCc1cn(Cc2ccc(F)cc2)c2ccccc12)N1CCN(S(=O)(=O)c2ccc(F)cc2)CC1 | 10 mm |
| O=C(Cc1c[nH]c2ccccc12)N1CCN(C(=O)c2ccc(Cl)cc2)CC1 | 10 mm |
| O=C(CCc1c[nH]c2ccccc12)N1CCN(C(=O)c2ccc(F)cc2)CC1 | 10 mm |
| O=C(Cc1cn(Cc2ccc(F)cc2)c2ccccc12)N1CCN(C(=O)c2ccc(Cl)cc2)CC1 | 10 mm |
| COc1ccc(S(=O)(=O)N2CCN(C(=O)CCc3cn(Cc4cn(Cc5ccc(F)cc5)nn4)c4ccccc34)CC2)cc1 | 10 mm |
| Cc1ccc(C(=O)N2CCN(C(=O)CCc3c[nH]c4ccccc34)CC2)cc1 | 10 mm |
| O=C(CCc1cn(Cc2ccc(F)cc2)c2ccccc12)N1CCN(S(=O)(=O)c2ccc(Cl)cc2)CC1 | 13 mm |
| O=C(CCc1cn(Cc2cn(Cc3ccc(F)cc3)nn2)c2ccccc12)N1CCN(C(=O)c2ccccc2)CC1 | 10 mm |
| O=C(Cc1c[nH]c2ccccc12)N1CCN(S(=O)(=O)c2ccc(F)cc2)CC1 | 10 mm |
| O=C(CCc1cn(Cc2ccc(F)cc2)c2ccccc12)N1CCN(C(=O)c2ccccc2)CC1 | 10 mm |

Each compound was assayed on Escherichia coli (assay: Antibacterial activity against Escherichia coli assessed as inhibition zone at 75 ug/ml by diffusion method). Conditions: read-out: IZ.
Assay type: functional

| SMILES | zone of inhibition at 75 µg/mL |
| --- | --- |
| O=C(CCc1c[nH]c2ccccc12)N1CCN(C(=O)c2ccc(Cl)cc2)CC1 | 12 mm |
| O=C(CCc1cn(Cc2ccc(F)cc2)c2ccccc12)N1CCN(S(=O)(=O)c2ccc(F)cc2)CC1 | 18 mm |
| O=C(Cc1c[nH]c2ccccc12)N1CCN(C(=O)c2ccc(Cl)cc2)CC1 | 12 mm |
| O=C(CCc1c[nH]c2ccccc12)N1CCN(C(=O)c2ccc(F)cc2)CC1 | 18 mm |
| O=C(Cc1cn(Cc2ccc(F)cc2)c2ccccc12)N1CCN(C(=O)c2ccc(Cl)cc2)CC1 | 15 mm |
| COc1ccc(S(=O)(=O)N2CCN(C(=O)CCc3cn(Cc4cn(Cc5ccc(F)cc5)nn4)c4ccccc34)CC2)cc1 | 18 mm |
| Cc1ccc(C(=O)N2CCN(C(=O)CCc3c[nH]c4ccccc34)CC2)cc1 | 15 mm |
| O=C(CCc1cn(Cc2ccc(F)cc2)c2ccccc12)N1CCN(S(=O)(=O)c2ccc(Cl)cc2)CC1 | 18 mm |
| O=C(CCc1cn(Cc2cn(Cc3ccc(F)cc3)nn2)c2ccccc12)N1CCN(C(=O)c2ccccc2)CC1 | 18 mm |
| O=C(Cc1c[nH]c2ccccc12)N1CCN(S(=O)(=O)c2ccc(F)cc2)CC1 | 18 mm |
| O=C(CCc1cn(Cc2ccc(F)cc2)c2ccccc12)N1CCN(C(=O)c2ccccc2)CC1 | 15 mm |

The compounds below were run on Mycobacterium tuberculosis (assay: Antimycobacterial activity against Mycobacterium tuberculosis H37Rv assessed as bacterial growth inhibition by microplate Alamar blue assay). Conditions: not given.
Assay type: functional

| SMILES | MIC |
| --- | --- |
| O=C(CCc1c[nH]c2ccccc12)N1CCN(C(=O)c2ccc(Cl)cc2)CC1 | 63.1 µM |
| O=C(CCc1cn(Cc2ccc(F)cc2)c2ccccc12)N1CCN(S(=O)(=O)c2ccc(F)cc2)CC1 | 23.8 µM |
| O=C(Cc1c[nH]c2ccccc12)N1CCN(C(=O)c2ccc(Cl)cc2)CC1 | 65.5 µM |
| O=C(CCc1c[nH]c2ccccc12)N1CCN(C(=O)c2ccc(F)cc2)CC1 | 65.9 µM |
| O=C(Cc1cn(Cc2ccc(F)cc2)c2ccccc12)N1CCN(C(=O)c2ccc(Cl)cc2)CC1 | 25.5 µM |
| COc1ccc(S(=O)(=O)N2CCN(C(=O)CCc3cn(Cc4cn(Cc5ccc(F)cc5)nn4)c4ccccc34)CC2)cc1 | 20.3 µM |
| Cc1ccc(C(=O)N2CCN(C(=O)CCc3c[nH]c4ccccc34)CC2)cc1 | 66.6 µM |
| O=C(CCc1cn(Cc2ccc(F)cc2)c2ccccc12)N1CCN(S(=O)(=O)c2ccc(Cl)cc2)CC1 | 23.1 µM |
| O=C(CCc1cn(Cc2cn(Cc3ccc(F)cc3)nn2)c2ccccc12)N1CCN(C(=O)c2ccccc2)CC1 | 22.7 µM |
| O=C(Cc1c[nH]c2ccccc12)N1CCN(S(=O)(=O)c2ccc(F)cc2)CC1 | > 120 µM |
| O=C(CCc1cn(Cc2ccc(F)cc2)c2ccccc12)N1CCN(C(=O)c2ccccc2)CC1 | 53.2 µM |

Each compound was assayed on Staphylococcus aureus (assay: Antibacterial activity against Staphylococcus aureus assessed as inhibition zone at 25 ug/ml by diffusion method). Conditions: read-out: IZ.
Assay type: functional

| SMILES | zone of inhibition at 25 µg/mL |
| --- | --- |
| O=C(CCc1c[nH]c2ccccc12)N1CCN(C(=O)c2ccc(Cl)cc2)CC1 | 10 mm |
| O=C(CCc1cn(Cc2ccc(F)cc2)c2ccccc12)N1CCN(S(=O)(=O)c2ccc(F)cc2)CC1 | 15 mm |
| O=C(Cc1c[nH]c2ccccc12)N1CCN(C(=O)c2ccc(Cl)cc2)CC1 | 13 mm |
| O=C(CCc1c[nH]c2ccccc12)N1CCN(C(=O)c2ccc(F)cc2)CC1 | 13 mm |
| O=C(Cc1cn(Cc2ccc(F)cc2)c2ccccc12)N1CCN(C(=O)c2ccc(Cl)cc2)CC1 | 13 mm |
| COc1ccc(S(=O)(=O)N2CCN(C(=O)CCc3cn(Cc4cn(Cc5ccc(F)cc5)nn4)c4ccccc34)CC2)cc1 | 10 mm |
| Cc1ccc(C(=O)N2CCN(C(=O)CCc3c[nH]c4ccccc34)CC2)cc1 | 10 mm |
| O=C(CCc1cn(Cc2ccc(F)cc2)c2ccccc12)N1CCN(S(=O)(=O)c2ccc(Cl)cc2)CC1 | 15 mm |
| O=C(CCc1cn(Cc2cn(Cc3ccc(F)cc3)nn2)c2ccccc12)N1CCN(C(=O)c2ccccc2)CC1 | 13 mm |
| O=C(Cc1c[nH]c2ccccc12)N1CCN(S(=O)(=O)c2ccc(F)cc2)CC1 | 13 mm |
| O=C(CCc1cn(Cc2ccc(F)cc2)c2ccccc12)N1CCN(C(=O)c2ccccc2)CC1 | 15 mm |

These compounds were tested on Pseudomonas aeruginosa (assay: Antibacterial activity against Pseudomonas aeruginosa assessed as inhibition zone at 75 ug/ml by diffusion method). Conditions: read-out: IZ.
Assay type: functional

| SMILES | zone of inhibition at 75 µg/mL |
| --- | --- |
| O=C(CCc1c[nH]c2ccccc12)N1CCN(C(=O)c2ccc(Cl)cc2)CC1 | 12 mm |
| O=C(CCc1cn(Cc2ccc(F)cc2)c2ccccc12)N1CCN(S(=O)(=O)c2ccc(F)cc2)CC1 | 12 mm |
| O=C(Cc1c[nH]c2ccccc12)N1CCN(C(=O)c2ccc(Cl)cc2)CC1 | 15 mm |
| O=C(CCc1c[nH]c2ccccc12)N1CCN(C(=O)c2ccc(F)cc2)CC1 | 13 mm |
| O=C(Cc1cn(Cc2ccc(F)cc2)c2ccccc12)N1CCN(C(=O)c2ccc(Cl)cc2)CC1 | 13 mm |
| COc1ccc(S(=O)(=O)N2CCN(C(=O)CCc3cn(Cc4cn(Cc5ccc(F)cc5)nn4)c4ccccc34)CC2)cc1 | 13 mm |
| Cc1ccc(C(=O)N2CCN(C(=O)CCc3c[nH]c4ccccc34)CC2)cc1 | 15 mm |
| O=C(CCc1cn(Cc2ccc(F)cc2)c2ccccc12)N1CCN(S(=O)(=O)c2ccc(Cl)cc2)CC1 | 17 mm |
| O=C(CCc1cn(Cc2cn(Cc3ccc(F)cc3)nn2)c2ccccc12)N1CCN(C(=O)c2ccccc2)CC1 | 12 mm |
| O=C(Cc1c[nH]c2ccccc12)N1CCN(S(=O)(=O)c2ccc(F)cc2)CC1 | 13 mm |
| O=C(CCc1cn(Cc2ccc(F)cc2)c2ccccc12)N1CCN(C(=O)c2ccccc2)CC1 | 13 mm |

The compounds below were run on Staphylococcus aureus (assay: Antibacterial activity against Staphylococcus aureus assessed as inhibition zone at 75 ug/ml by diffusion method). Conditions: read-out: IZ.
Assay type: functional

| SMILES | zone of inhibition at 75 µg/mL |
| --- | --- |
| O=C(CCc1c[nH]c2ccccc12)N1CCN(C(=O)c2ccc(Cl)cc2)CC1 | 20 mm |
| O=C(CCc1cn(Cc2ccc(F)cc2)c2ccccc12)N1CCN(S(=O)(=O)c2ccc(F)cc2)CC1 | 23 mm |
| O=C(Cc1c[nH]c2ccccc12)N1CCN(C(=O)c2ccc(Cl)cc2)CC1 | 20 mm |
| O=C(CCc1c[nH]c2ccccc12)N1CCN(C(=O)c2ccc(F)cc2)CC1 | 20 mm |
| O=C(Cc1cn(Cc2ccc(F)cc2)c2ccccc12)N1CCN(C(=O)c2ccc(Cl)cc2)CC1 | 23 mm |
| COc1ccc(S(=O)(=O)N2CCN(C(=O)CCc3cn(Cc4cn(Cc5ccc(F)cc5)nn4)c4ccccc34)CC2)cc1 | 18 mm |
| Cc1ccc(C(=O)N2CCN(C(=O)CCc3c[nH]c4ccccc34)CC2)cc1 | 15 mm |
| O=C(CCc1cn(Cc2ccc(F)cc2)c2ccccc12)N1CCN(S(=O)(=O)c2ccc(Cl)cc2)CC1 | 23 mm |
| O=C(CCc1cn(Cc2cn(Cc3ccc(F)cc3)nn2)c2ccccc12)N1CCN(C(=O)c2ccccc2)CC1 | 20 mm |
| O=C(Cc1c[nH]c2ccccc12)N1CCN(S(=O)(=O)c2ccc(F)cc2)CC1 | 20 mm |
| O=C(CCc1cn(Cc2ccc(F)cc2)c2ccccc12)N1CCN(C(=O)c2ccccc2)CC1 | 23 mm |

What follows are compounds tested on Staphylococcus aureus (assay: Antibacterial activity against Staphylococcus aureus assessed as inhibition zone at 50 ug/ml by diffusion method). Conditions: read-out: IZ.
Assay type: functional

| SMILES | zone of inhibition at 50 µg/mL |
| --- | --- |
| O=C(CCc1c[nH]c2ccccc12)N1CCN(C(=O)c2ccc(Cl)cc2)CC1 | 15 mm |
| O=C(CCc1cn(Cc2ccc(F)cc2)c2ccccc12)N1CCN(S(=O)(=O)c2ccc(F)cc2)CC1 | 18 mm |
| O=C(Cc1c[nH]c2ccccc12)N1CCN(C(=O)c2ccc(Cl)cc2)CC1 | 15 mm |
| O=C(CCc1c[nH]c2ccccc12)N1CCN(C(=O)c2ccc(F)cc2)CC1 | 15 mm |
| O=C(Cc1cn(Cc2ccc(F)cc2)c2ccccc12)N1CCN(C(=O)c2ccc(Cl)cc2)CC1 | 18 mm |
| COc1ccc(S(=O)(=O)N2CCN(C(=O)CCc3cn(Cc4cn(Cc5ccc(F)cc5)nn4)c4ccccc34)CC2)cc1 | 15 mm |
| Cc1ccc(C(=O)N2CCN(C(=O)CCc3c[nH]c4ccccc34)CC2)cc1 | 13 mm |
| O=C(CCc1cn(Cc2ccc(F)cc2)c2ccccc12)N1CCN(S(=O)(=O)c2ccc(Cl)cc2)CC1 | 18 mm |
| O=C(CCc1cn(Cc2cn(Cc3ccc(F)cc3)nn2)c2ccccc12)N1CCN(C(=O)c2ccccc2)CC1 | 10 mm |
| O=C(Cc1c[nH]c2ccccc12)N1CCN(S(=O)(=O)c2ccc(F)cc2)CC1 | 15 mm |
| O=C(CCc1cn(Cc2ccc(F)cc2)c2ccccc12)N1CCN(C(=O)c2ccccc2)CC1 | 18 mm |

What follows are compounds tested on Escherichia coli (assay: Antibacterial activity against Escherichia coli assessed as inhibition zone at 50 ug/ml by diffusion method). Conditions: read-out: IZ.
Assay type: functional

| SMILES | zone of inhibition at 50 µg/mL |
| --- | --- |
| O=C(CCc1c[nH]c2ccccc12)N1CCN(C(=O)c2ccc(Cl)cc2)CC1 | 10 mm |
| O=C(CCc1cn(Cc2ccc(F)cc2)c2ccccc12)N1CCN(S(=O)(=O)c2ccc(F)cc2)CC1 | 14 mm |
| O=C(Cc1c[nH]c2ccccc12)N1CCN(C(=O)c2ccc(Cl)cc2)CC1 | 10 mm |
| O=C(CCc1c[nH]c2ccccc12)N1CCN(C(=O)c2ccc(F)cc2)CC1 | 15 mm |
| O=C(Cc1cn(Cc2ccc(F)cc2)c2ccccc12)N1CCN(C(=O)c2ccc(Cl)cc2)CC1 | 13 mm |
| COc1ccc(S(=O)(=O)N2CCN(C(=O)CCc3cn(Cc4cn(Cc5ccc(F)cc5)nn4)c4ccccc34)CC2)cc1 | 15 mm |
| Cc1ccc(C(=O)N2CCN(C(=O)CCc3c[nH]c4ccccc34)CC2)cc1 | 13 mm |
| O=C(CCc1cn(Cc2ccc(F)cc2)c2ccccc12)N1CCN(S(=O)(=O)c2ccc(Cl)cc2)CC1 | 15 mm |
| O=C(CCc1cn(Cc2cn(Cc3ccc(F)cc3)nn2)c2ccccc12)N1CCN(C(=O)c2ccccc2)CC1 | 15 mm |
| O=C(Cc1c[nH]c2ccccc12)N1CCN(S(=O)(=O)c2ccc(F)cc2)CC1 | 15 mm |
| O=C(CCc1cn(Cc2ccc(F)cc2)c2ccccc12)N1CCN(C(=O)c2ccccc2)CC1 | 13 mm |
